US10274488B2, “Glycan arrays on PTFE-like aluminum coated glass slides and related methods” (Academia Sinica, priority 2008, dated 2019)

Experiments:
cellulase from T. reesei = assay: Enzymatic hydrolysis in solution with cellulase from T. reesei, MS-TOF readout; format: biochemical, Trichoderma reesei; conditions: reaction in solution
Protocol: (§1) Enzymatic hydrolysis of the immobilized poly-fluorinated cellobiose 8 (see FIG. 14) was first conducted in situ on the phosphonic acid slide surface. Three commercially available cellulases, Aspergillus niger (A. niger), Trichoderma reesei (T. reesei), and Trichoderma viride (T. viride) were prepared separately at 5 U/mL in a sodium acetate (25 mM) buffer solution (pH 5) and loaded onto the functionalized slide which has been divided into 16 wells using Fast Frame reaction chambers. For comparison, an aliquot of enzyme solution (100 μL) was added to the solution of fluorinated cellobiose (100 μL of 0.5 mM) in eppendorfs to carry out the enzymatic hydrolysis reactions in solution. After the reaction, it was transferred to the empty wells of the same slide. Each well was rinsed separately three times with de-ionized water and the slide was dried again under high vacuum before subjecting to MS-TOF analysis.
(§2) Under MS-TOF analysis, the clean background baseline allowed calculation of the percentage of hydrolyzed components for each sample. As shown in the MS-TOF results in FIG. 20, percentages of hydrolyzed products are calculated from the peak intensities of each spectrum. According to implementations of experimental data shown in FIG. 20, MS-TOF data of enzymatic hydrolysis of poly-fluorinated cellobiose in solution in FIG. 20A and immobilized on PTFE-like ACG slide in FIG. 20B. The control are the same experimental conditions run without enzymes in (a); (b), (c), and (d) are experimental conditions with the cellulase proteins from A. niger (b), T. reesei (c), and T. viride (d).
(§3) Cellulase was prepared (5 U/mL in 25 mM pH 5.05 NaOAc buffer solution). Substrate was also dissolved in NaOAc buffer solution (25 mM, pH 5.05) to give 0.5 mM substrate solution. Add 100 uL cellulase solution to 100 uL substrate solution in eppendorf to have a 2.5 U/mL cellulase solution with 0.25 mM substrate. This solution was incubated in 37° C. for 18 hours. Add 100 μL incubated solution onto the slide loaded in FAST® Frame. Put the slide in dry box to remove the water, and then use high vacuum to remove trace water. 100 μL water was used to rinse each well of the FAST® Frame multi-slide plate to solve and remove the salt of the buffer solution. Remove any residual water on the plate by high vacuum and then analyzed the slide by MALDI-TOF Ultra-Flex II.

cellulase from A. niger = assay: Enzymatic hydrolysis in solution with cellulase from A. niger, MS-TOF readout; format: biochemical, Aspergillus niger; conditions: reaction in solution
Protocol: as §1, §2, §3

endoglucanase 44A = assay: Enzymatic hydrolysis on the PTFE-like ACG surface with endoglucanase 44A, MS-TOF assay; format: biochemical, Clostridium thermocellum; conditions: substrate immobilized on the PTFE-like ACG surface
Protocol: For each carbohydrate, a specific enzyme was added: (a) is the control run without enzymes, (b) is exoglucanase L3, and (c) is endoglucanase 44A. […]
For comparison and as illustrated according to implementations shown in FIG. 23, substrate 8, 9, and 10 were immobilized on the PTFE-like ACG surface and carried out the cellulase hydrolysis on the surface directly, after the same washing procedures, these slides were subjected to MS-TOF assay. […] The endoglucanase 44A can't accept compound 8 or 9 as a substrate. […] From the above results, the cellotetraose substrate 10 was the best carbohydrate to create array on the PTFE-like ACG surface for the experiments conducted. By using this array, the activity and specificity of unknown cellulase may be examined.
Cellulase was prepared (5 U/mL in 25 mM pH 5.05 NaOAc buffer solution). Substrate was also dissolved in NaOAc buffer solution (25 mM, pH 5.05) to give 0.5 mM substrate solution. Add 50 μL cellulase solution to 50 μL substrate solution onto the glass slide which was loaded in FAST® Frame multi-slide plate to have a 2.5 U/mL cellulase solution with 0.25 mM substrate. The well of the plate was sealed and the whole assembly was incubated in 37° C. for 18 hours. Put the slide in dry box to remove the water, and then use high vacuum to remove trace water. 100 uL water was used to rinse each well of the FAST® Frame multi-slide plate to solve and remove the salt of the buffer solution. Remove any residual water on the plate by high vacuum and then analyzed the slide by MALDI-TOF Ultra-Flex II.
The genomic DNA of Sulfolobus solfataricus (ATCC 35092) and Clostridium thermocellum (ATCC 27405) were obtained from the ATCC biological resource center. The Sso7d (NCBI accession number: AAK42090) gene fragment was amplified directly from the Sulfolobus solfataricus genome by polymerase chain reaction (PCR) with forward 5′ […] 3′ (SEQ ID NO: 1) and reverse 5′ […] 3′ (SEQ ID NO: 2) primers. […]

| Compound | Biose (un-hydrolyzed cellobiose), percentage of hydrolyzed pattern (cellulase from T. reesei; T. reesei cellulase, pH 5) [%] | F-tail, percentage of hydrolyzed pattern (cellulase from T. reesei; T. reesei cellulase, pH 5) [%] | Glucose, percentage of hydrolyzed pattern (cellulase from T. reesei; T. reesei cellulase, pH 5) [%] | Triose, percentage of hydrolyzed pattern (cellulase from T. reesei; T. reesei cellulase, pH 5) | Biose (un-hydrolyzed cellobiose), percentage of hydrolyzed pattern (cellulase from A. niger; A. niger cellulase, pH 5) [%] | F-tail, percentage of hydrolyzed pattern (cellulase from A. niger; A. niger cellulase, pH 5) | Glucose, percentage of hydrolyzed pattern (cellulase from A. niger; A. niger cellulase, pH 5) [%] | Triose, percentage of hydrolyzed pattern (cellulase from A. niger; A. niger cellulase, pH 5) [%] | Triose, percentage of hydrolyzed pattern (cellulase from A. niger; A. niger cellulase, pH 5, listed as cellobiose) [%] | Hydrolysis of the substrate by the enzyme from A. niger, one glucose unit at a time (in words) (cellulase from A. niger) | Cleavage of the substrate by endoglucanase 44A (in words) (endoglucanase 44A) | Hydrolysis of the substrate by the enzyme from T. reesei compared with the enzymes from the other two species (in words) (cellulase from T. reesei) |
| --- | --- | --- | --- | --- | --- | --- | --- | --- | --- | --- | --- | --- |
| O=C(NCCCCCO[C@@H]1O[C@H](CO)[C@@H](O[C@@H]2O[C@H](CO)[C@@H](O)[C@H](O)[C@H]2O)[C@H](O)[C@H]1O)OCCCC(F)(F)C(F)(F)C(F)(F)C(F)(F)C(F)(F)C(F)(F)C(F)(F)C(F)(F)F [Compound 8, [(4,4,5,5,6,6,7,7,8,8,9,9,10,10,11,11,12,12,12-nonadecafluorododecoxycarbonyl-amino)pentyl] ß-D-cellobioside] | 7 | 0 | 93 | 0/0% | 64 | 0/0% | 18 | 18 | 8 | very slow reaction rate | can't accept |  |
| O=C(NCCCCCO[C@@H]1O[C@H](CO)[C@@H](O[C@@H]2O[C@H](CO)[C@@H](O[C@@H]3O[C@H](CO)[C@@H](O)[C@H](O)[C@H]3O)[C@H](O)[C@H]2O)[C@H](O)[C@H]1O)OCCCC(F)(F)C(F)(F)C(F)(F)C(F)(F)C(F)(F)C(F)(F)C(F)(F)C(F)(F)C(F)(F)F [Compound 9, [(4,4,5,5,6,6,7,7,8,8,9,9,10,10,11,11,12,12,12-nonadecafluorododecoxycarbonyl-amino)pentyl] ß-D-glucopyranosyl-(1→4)-ß-D-glucopyranosyl-(1→4)- -ß-D-glucopyranoside] |  |  |  |  |  |  |  |  |  | very slow reaction rate | can't accept | most efficiently |
